# Tested on: human CFBE cells
# Assay: MQAE cAMP-stimulated chloride efflux assay
# Type: cell-based
# Text: FIG. 3 is a bar graph showing chloride efflux measured using fluorescent indicator dye N-[ethoxycarbonylmethyl]-6-methoxy-quinolinium bromide (MQAE), in untreated human CFBE cells and those treated with NPs, and those treated with blank particles. One way ANOVA with multiple comparisons was used to analyze chloride efflux in untreated CF cells, blank particle treated CF cells, PNA/DNA particle treated cells and normal human bronchial epithelial cells (16HBE14o-).
# CFBE cells (CFBE41o-) and human bronchial epithelial cells (16HBE14o-) (Gruenert, et al., J Cyst Fibros 3 Suppl 2, 191-196 (2004)) were grown with EMEM (Corning) with 10% FBS, 20 mM L-glutamine, and Pen/Strep. Once grown to confluence, cells were trypsinized by first washing with PBS, then adding 0.25% trypsin for 5 minutes, and harvesting with culture media. Once grown to confluence, cells were trypsinized by first washing with 0.05% trypsin, then adding 0.25% trypsin for 5 minutes, and harvesting with RPMI medium with 10% FBS. Cells were frozen in 5% DMSO in culture medium as necessary. NPs were suspended in culture media by vigorous vortexing and water sonication, then added directly to cells at concentrations of 2 mg/mL×10^6 cells (corresponding to approximately 10^9 PNA/DNA molecules delivered to each cell assuming 100% efficiency).
# Glass coverslips (22×50 mm) were sterilized by dipping in 70% EtOH and were subsequently placed in 60 mm cell culture dishes (3 per dish.) The plates were exposed to UV irradiation overnight. Cells (˜1×10^6) were seeded in the dish and the cells grew to confluence in MEM media containing 10% FBS, L-glutamine, and pen/strep. At least 12 hours before the experiment, the cells were fed with MEM media containing 5% FBS, L-glutamine, and pen/strep. The experiment was run as previously described (Shenoy, et al., Pediatric research 70, 447-452 (2011)). Briefly, cells were incubated with N-[ethoxycarbonylmethyl]-6-methoxy-quinolinium bromide (MQAE, Invitrogen) in DMSO (100 uL, 30 mM suspended in HEPES Cl solution) for 30 minutes at 37° C. […] MQAE was excited at 354±10 nm and the emitted fluorescence of at least 20 cells was measured at 460±10 nm every five seconds for two minutes. […] The rate of change in MQAE fluorescence (Δarbitrary fluorescence units/sec) was used to calculate Cl^− efflux.
# To compare the activity of unmodified (classic) and γPNA treatments on gene editing in human CFBE cells, the cells were treated with either PLGA NPs containing no PNA/mismatched donor DNA (referred to as blank NP), PLGA NPs containing hCF-PNA/donor DNA, PBAE/PLGA/MPG NPs containing hCF-PNA/donor DNA and PBAE/PLGA/MPG NPs containing γhCF-PNA-h/donor DNA. After treatment of the cells, cAMP-stimulated chloride efflux was quantified using the MQAE assay (McNeer, et al., Nat Commun 6, 6952 (2015)). […]
# [1] = PBAE/PLGA/MPG NPs with PNA/donor DNA
Substance,chloride efflux [1],chloride efflux (PLGA NPs with PNA/donor DNA),chloride efflux compared to untreated cells or blank NPs [1] [fold]
"H-KKK-TJTJJTTT-OOO-TTTCCTCTATGGGTAAG-KKK-NH2 [hCF PNA] (TNTNNTTTTTTCCTCTATGGGTAAG; listed as DNA, chemistry not fully specified)",further enhanced,marked increase in chloride efflux,–
"H-KKK-TJTJJTTT-OOO-TTTCCTCTATGGGTAAG-KKK-NH2 [γhCF PNA-h] (TNTNNTTTTTTCCTCTATGGGTAAG; listed as DNA, chemistry not fully specified) [tail clamp PNA targeting human CFTR gene with MPγ monomers in Hoogsteen domain]",no different than non-CF affected HBE cells,–,7
